How the values were obtained:
[1] = tested on: TP53-mutant hematopoietic stem cells (HSCs); assay: Mixed bone marrow chimeras (wildtype and R172H TP53 bone marrow); format: in vivo; details: mice with mixed wildtype / R172H TP53 bone marrow chimeras
Excerpt: To assess the impact of combination treatment on TP53-mutant hematopoietic stem cells (HSCs), mixed bone marrow chimeras transplanted with both wildtype and R172H TP53 bone marrow were established as illustrated in FIG. 13.

ATR = ATR (Homo sapiens, UniProt Q13535); details: cited from earlier work
Chain of ATR (Q13535 whole entry): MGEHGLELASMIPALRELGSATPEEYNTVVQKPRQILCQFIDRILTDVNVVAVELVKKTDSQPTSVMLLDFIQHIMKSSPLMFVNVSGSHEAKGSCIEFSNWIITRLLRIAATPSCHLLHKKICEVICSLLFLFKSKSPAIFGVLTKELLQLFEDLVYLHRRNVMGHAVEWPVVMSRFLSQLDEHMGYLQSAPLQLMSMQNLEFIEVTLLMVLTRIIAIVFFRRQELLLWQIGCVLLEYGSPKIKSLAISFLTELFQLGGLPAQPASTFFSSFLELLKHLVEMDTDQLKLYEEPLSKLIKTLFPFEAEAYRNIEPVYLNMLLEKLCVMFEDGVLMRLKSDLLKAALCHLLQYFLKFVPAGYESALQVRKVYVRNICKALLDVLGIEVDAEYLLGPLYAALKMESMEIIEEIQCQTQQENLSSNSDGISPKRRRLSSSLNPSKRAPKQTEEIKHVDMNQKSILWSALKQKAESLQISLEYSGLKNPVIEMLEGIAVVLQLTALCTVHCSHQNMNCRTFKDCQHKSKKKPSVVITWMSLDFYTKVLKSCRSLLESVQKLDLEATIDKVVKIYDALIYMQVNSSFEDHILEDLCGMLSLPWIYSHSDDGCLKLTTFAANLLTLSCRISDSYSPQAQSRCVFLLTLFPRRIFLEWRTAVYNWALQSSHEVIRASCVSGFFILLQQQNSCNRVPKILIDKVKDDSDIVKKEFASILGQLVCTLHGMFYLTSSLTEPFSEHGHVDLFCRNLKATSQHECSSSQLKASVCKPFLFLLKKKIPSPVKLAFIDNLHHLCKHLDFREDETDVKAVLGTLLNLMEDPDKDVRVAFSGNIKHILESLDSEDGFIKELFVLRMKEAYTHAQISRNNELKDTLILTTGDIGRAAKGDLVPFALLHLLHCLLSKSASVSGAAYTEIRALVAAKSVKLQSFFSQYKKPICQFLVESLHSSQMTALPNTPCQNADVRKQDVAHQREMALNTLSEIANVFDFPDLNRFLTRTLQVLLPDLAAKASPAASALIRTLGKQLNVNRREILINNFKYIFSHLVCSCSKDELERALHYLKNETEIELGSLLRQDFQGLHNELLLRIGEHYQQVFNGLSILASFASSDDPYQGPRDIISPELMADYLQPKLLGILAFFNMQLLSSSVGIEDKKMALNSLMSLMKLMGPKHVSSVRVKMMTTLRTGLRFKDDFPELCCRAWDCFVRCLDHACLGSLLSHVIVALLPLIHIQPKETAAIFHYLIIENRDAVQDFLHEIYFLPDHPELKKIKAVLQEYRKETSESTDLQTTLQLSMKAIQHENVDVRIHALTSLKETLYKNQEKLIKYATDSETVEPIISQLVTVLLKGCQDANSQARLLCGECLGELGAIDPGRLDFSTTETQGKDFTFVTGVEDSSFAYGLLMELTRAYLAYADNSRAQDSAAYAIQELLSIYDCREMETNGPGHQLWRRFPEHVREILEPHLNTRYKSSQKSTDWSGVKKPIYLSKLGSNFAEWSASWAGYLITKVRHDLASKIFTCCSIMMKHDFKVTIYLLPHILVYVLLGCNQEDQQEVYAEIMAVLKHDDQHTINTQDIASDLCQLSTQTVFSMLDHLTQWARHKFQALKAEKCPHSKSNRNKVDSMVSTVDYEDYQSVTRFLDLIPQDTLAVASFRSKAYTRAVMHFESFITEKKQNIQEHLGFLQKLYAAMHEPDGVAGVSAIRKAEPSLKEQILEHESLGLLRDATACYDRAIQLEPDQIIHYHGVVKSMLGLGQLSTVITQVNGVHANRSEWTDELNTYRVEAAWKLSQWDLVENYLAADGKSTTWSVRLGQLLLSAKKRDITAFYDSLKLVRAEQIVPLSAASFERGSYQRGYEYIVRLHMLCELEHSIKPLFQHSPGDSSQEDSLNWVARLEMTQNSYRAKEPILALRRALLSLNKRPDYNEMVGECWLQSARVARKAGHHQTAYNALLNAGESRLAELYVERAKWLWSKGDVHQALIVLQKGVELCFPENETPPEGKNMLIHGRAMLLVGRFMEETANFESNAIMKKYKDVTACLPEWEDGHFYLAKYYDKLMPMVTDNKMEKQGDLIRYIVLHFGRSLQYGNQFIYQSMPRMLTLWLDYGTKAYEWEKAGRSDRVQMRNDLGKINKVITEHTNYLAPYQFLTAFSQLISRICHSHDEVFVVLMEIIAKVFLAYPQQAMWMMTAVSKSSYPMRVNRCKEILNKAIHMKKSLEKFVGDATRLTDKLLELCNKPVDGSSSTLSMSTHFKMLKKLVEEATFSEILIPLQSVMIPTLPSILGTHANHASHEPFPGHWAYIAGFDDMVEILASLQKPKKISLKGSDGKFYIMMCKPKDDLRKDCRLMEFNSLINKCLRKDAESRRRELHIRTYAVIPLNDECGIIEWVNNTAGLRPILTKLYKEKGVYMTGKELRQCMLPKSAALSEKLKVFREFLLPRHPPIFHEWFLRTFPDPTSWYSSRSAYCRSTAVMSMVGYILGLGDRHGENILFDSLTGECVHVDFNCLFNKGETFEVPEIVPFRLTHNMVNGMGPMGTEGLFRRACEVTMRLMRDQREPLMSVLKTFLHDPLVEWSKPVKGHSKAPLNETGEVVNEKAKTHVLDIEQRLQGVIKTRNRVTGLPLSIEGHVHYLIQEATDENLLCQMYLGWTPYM
Chain of ATR (Q8WXE1 whole entry partner): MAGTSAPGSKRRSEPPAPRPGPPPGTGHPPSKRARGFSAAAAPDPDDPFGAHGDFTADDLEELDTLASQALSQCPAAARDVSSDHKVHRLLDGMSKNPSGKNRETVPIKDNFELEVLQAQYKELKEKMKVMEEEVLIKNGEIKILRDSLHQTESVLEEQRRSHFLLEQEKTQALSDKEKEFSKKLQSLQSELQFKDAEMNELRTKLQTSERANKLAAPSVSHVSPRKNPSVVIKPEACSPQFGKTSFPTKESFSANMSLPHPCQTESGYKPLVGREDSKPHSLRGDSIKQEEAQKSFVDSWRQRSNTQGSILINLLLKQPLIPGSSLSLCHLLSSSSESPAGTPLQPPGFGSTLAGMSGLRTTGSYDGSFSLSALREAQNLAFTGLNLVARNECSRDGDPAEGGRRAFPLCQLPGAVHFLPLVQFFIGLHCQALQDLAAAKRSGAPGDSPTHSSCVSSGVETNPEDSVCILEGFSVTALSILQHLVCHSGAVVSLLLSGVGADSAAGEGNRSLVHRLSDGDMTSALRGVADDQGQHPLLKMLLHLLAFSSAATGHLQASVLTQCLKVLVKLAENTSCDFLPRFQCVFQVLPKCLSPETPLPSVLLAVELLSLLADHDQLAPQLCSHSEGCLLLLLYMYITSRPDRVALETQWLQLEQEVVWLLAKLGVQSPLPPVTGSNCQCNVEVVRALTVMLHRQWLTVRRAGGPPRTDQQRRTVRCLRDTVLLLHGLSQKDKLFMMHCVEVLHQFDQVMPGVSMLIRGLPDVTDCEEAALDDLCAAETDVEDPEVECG

SMILES	effect on TP53-mutant HSCs [1]	inhibition of ATR signaling (ATR)
N.N.[Cl][Pt][Cl] [cis-platinum]	significant expansion of TP53-mutant HSCs	–
Cn1cncc1-c1c(F)cncc1NC(=O)c1c(N)nn2cc(F)cnc12 [M1774]	–	potent and specific inhibitor of ATR signaling

From patent publication US20240050435A1, “METHODS FOR TREATING CANCER” (Washington University, priority 2022, published 2024)
